Calls of active or inactive are those of the source.
Key:
[1] = HGIII-sPLA2 enzyme inhibition potency – biochemical, QFRET, IC50, dose response (AID 743457);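 note: green fluorescence rise as the enzyme cleaves BODIPY PC-A2 in liposomes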
Cytochrome P450 2D6 = Cytochrome P450 2D6 (Homo sapiens, UniProt P10635);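 note: CYP2D6 member of a cytochrome P450 panel assay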
Cytochrome P450 1A2 = target: T1, Cytochrome P450 1A2 (Homo sapiens, UniProt P05177);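 note: PubChem cytochrome P450 panel assay, CYP1A2 panel member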
T1 sequence (P05177 whole entry): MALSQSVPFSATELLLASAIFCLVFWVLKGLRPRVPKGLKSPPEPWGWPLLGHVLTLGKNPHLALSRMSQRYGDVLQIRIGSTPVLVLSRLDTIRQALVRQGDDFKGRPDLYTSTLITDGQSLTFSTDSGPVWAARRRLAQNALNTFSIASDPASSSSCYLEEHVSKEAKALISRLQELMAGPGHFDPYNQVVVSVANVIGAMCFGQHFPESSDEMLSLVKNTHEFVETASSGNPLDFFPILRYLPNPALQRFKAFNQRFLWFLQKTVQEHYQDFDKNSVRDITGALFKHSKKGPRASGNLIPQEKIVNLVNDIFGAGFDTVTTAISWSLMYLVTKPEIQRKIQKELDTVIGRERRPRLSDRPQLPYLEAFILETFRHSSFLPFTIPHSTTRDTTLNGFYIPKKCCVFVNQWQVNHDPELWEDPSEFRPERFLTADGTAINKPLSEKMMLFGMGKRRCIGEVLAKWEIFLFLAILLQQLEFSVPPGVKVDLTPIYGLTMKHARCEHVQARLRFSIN

[2] = general mammalian cell viability loss – inhibitor set, cherry-pick, set 2, cytotoxicity control for miR-122 modulator project, dose response (AID 720697); type: functional, cell-based
[3] = Trypanosoma cruzi growth suppression in host cells – NIH3T3 host cells, beta-gal luminescence, confirmation (AID 2044); type: functional, cell-based;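 note: intracellular parasites grown in NIH/3T3 mouse fibroblasts as host cells; luminescent beta-galactosidase reporter signal from transgenic T. cruzi replicating inside host cells; inhibitors lower the luminescence signal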
[4] = NIH3T3 cell viability loss – ATP luminescence, mouse fibroblasts, counter-screen, dose response (AID 2010); type: functional, cell-based;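 note: cells exposed to compound for about 90 hours before reading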
[5] = target: DNA dC->dU-editing enzyme APOBEC-3A (Homo sapiens, UniProt P31941); assay: A3A deaminase inhibition for selectivity – biochemical, dose response (AID 504722); type: functional
[6] = target: Glucose-6-phosphate 1-dehydrogenase (Homo sapiens, UniProt P11413); assay: inhibition of Homo sapiens G6PD, dose series – biochemical, fluorescence, selectivity assay for P. falciparum G6PD inhibitor project, dose response (AID 504792); type: functional
[7] = target: DNA dC->dU-editing enzyme APOBEC-3G (Homo sapiens, UniProt Q9HC16); assay: Dose Response confirmation of small molecule APOBEC3G DNA Deaminase Inhibitors via a fluorescence-based single-stranded DNA deaminase assay. [Related pubchem assays (depositor defined):AID493012, AID493028]; type: functional
[8] = Fluorescence-based cell-based high throughput dose response assay for inhibitors of the interaction of nucleotide-binding oligomerization domain containing 2 (NOD2) and the receptor-interacting serine-threonine kinase 2 (RIPK2).; type: functional; details: Homo sapiens
Beta Lactamase = Beta Lactamase (Pseudomonas aeruginosa, UniProt Q932Y6); assay: BLA reporter interference, concentration series – BLA reporter cells, FRET fluorescence, artefact control for NOD2-RIPK2 interaction inhibitor project, dose response (AID 651552); type: functional, cell-based
Mu-type opioid receptor = Mu-type opioid receptor (Homo sapiens, UniProt P35372); type: functional, cell-based;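 note: U2OS cells with beta-arrestin recruitment to OPRM1 by beta-gal complementation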
[9] = target: 5-hydroxytryptamine receptor 2A (Mus musculus, UniProt P35363); type: functional, cell-based;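 note: CHO-K1 cells with tagged receptor and beta-arrestin; agonist potency measured as compound-induced activation of the receptor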
Large T antigen = Large T antigen (Simian virus 40, UniProt P03070); type: functional, Betapolyomavirus macacae;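 note: Confirmatory-stage PubChem screen for compounds that inhibit SV40 T antigen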
[10] = target: T2, High affinity choline transporter 1 (Homo sapiens, UniProt Q9GZV3); assay: human choline transporter blockers, potency – cell-based, 5-point CRC, membrane potential dye, dose response (AID 504840); type: functional
T2 sequence (Q9GZV3 whole entry): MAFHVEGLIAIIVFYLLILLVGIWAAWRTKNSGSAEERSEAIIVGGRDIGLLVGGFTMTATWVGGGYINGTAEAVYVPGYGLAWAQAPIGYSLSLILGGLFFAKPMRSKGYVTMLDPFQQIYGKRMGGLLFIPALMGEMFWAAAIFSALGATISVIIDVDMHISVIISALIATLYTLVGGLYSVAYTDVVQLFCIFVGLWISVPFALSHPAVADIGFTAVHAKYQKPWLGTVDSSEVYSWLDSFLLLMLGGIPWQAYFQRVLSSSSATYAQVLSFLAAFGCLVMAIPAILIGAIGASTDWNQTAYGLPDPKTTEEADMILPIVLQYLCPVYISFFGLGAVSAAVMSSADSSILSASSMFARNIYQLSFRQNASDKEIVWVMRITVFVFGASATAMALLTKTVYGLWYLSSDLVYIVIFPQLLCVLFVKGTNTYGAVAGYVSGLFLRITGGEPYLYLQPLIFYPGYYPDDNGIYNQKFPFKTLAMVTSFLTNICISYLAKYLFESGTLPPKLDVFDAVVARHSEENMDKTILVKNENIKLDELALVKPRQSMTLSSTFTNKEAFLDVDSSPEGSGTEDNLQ

[11] = viability loss in HeLa cells – cytotoxicity control for MgcRacGAP inhibitor project, dose response (AID 624300); type: functional
[12] = target: T3, Rac GTPase-activating protein 1 (Homo sapiens, UniProt Q9H0H5); assay: blockers of MgcRacGAP-driven Rac1 GTP hydrolysis – biochemical, ADP Hunter fluorescence, primary and confirmatory, confirmation (AID 624330); type: functional
T3 sequence (Q9H0H5 whole entry): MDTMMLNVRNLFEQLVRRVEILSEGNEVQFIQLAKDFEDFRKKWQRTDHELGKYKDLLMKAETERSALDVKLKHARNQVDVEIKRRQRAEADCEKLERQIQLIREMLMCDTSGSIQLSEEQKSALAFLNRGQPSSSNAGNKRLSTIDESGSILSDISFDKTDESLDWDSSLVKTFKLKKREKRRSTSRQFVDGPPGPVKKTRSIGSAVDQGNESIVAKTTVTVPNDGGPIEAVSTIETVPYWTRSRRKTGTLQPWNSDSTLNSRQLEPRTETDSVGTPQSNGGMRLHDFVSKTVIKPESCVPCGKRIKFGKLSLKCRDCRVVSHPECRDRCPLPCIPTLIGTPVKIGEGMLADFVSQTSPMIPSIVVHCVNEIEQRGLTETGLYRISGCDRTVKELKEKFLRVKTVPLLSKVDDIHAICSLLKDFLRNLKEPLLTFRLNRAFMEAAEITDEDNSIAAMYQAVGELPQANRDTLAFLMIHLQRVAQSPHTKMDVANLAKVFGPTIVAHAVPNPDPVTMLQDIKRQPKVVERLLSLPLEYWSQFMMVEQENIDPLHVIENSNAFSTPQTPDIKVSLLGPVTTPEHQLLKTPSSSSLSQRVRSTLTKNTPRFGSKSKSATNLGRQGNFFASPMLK

[13] = THP-1 cell cytotoxicity, dose response, cytotoxicity control for non-replicating M. tuberculosis project (AID 489025); type: functional
[14] = Vero E6 cell cytotoxicity, dose response, cytotoxicity control for non-replicating M. tuberculosis project, secondary assay (AID 492998); type: functional, VeroE6; details: Vero C1008
cells = type: functional
[15] = bead-based luminescence quenchers, dual-tagged ARNT – biochemical, AlphaScreen, cherry-pick, artefact control for ARNT-TACC3 interaction inhibitor project, dose response (AID 651705); type: functional;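 note: AlphaScreen bead proximity signal that flags compounds interfering with the detection technology; potency reflects signal decrease which marks the compound as an assay artifact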
[16] = target: Nuclear receptor subfamily 5 group A member 2 (Homo sapiens, UniProt O00482); type: functional, cell-based;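 note: HEK293T cells transfected with LRH-1 and a StAR promoter luciferase reporter; potency for inhibitors that lower LRH-1 driven reporter light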
Steroidogenic factor 1 = Steroidogenic factor 1 (Homo sapiens, UniProt Q13285); assay: Counterscreen for inverse agonists of the liver receptor homolog-1 (LRH-1; NR5A2): Luminescence-based cell-based high throughput dose response assay to identify inverse agonists of the Steroidogenic Factor 1 Nuclear Receptor (SF1; NR5A1).; type: functional
[17] = nonselective StAR promoter luciferase inhibitors – cell-based, luminescence, luciferase reporter, counter-screen for LRH-1 inverse agonist project, dose response (AID 651969); type: functional
Paired box protein Pax-8 = Paired box protein Pax-8 (Homo sapiens, UniProt Q06710); assay: PAX8 transcriptional activity inhibition in RMG-I – RMG-I cells, luciferase, cherry-pick, dose response (AID 687027); type: functional, cell-based;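 note: luciferase reporter driven by Pax8 target thyroperoxidase promoter measured by SteadyGlo luminescence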
[18] = CMV-driven luciferase expression suppression in HEK293 – cell-based, luminescence, dry powder, counter-screen for Pax8 inhibitor project, dose response (AID 743020); type: functional
[19] = OVCAR-3 cell viability loss – plate reader, dry powder samples, PAX8 inhibitor project, dose response (AID 743044); type: functional, cell-based
[20] = target: T4, Low molecular weight phosphotyrosine protein phosphatase (Homo sapiens, UniProt P24666); type: functional; details: read-out: IC50_Mean;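 note: Dose-response confirmation assay measuring inhibition of LMPTP enzyme activity by fluorescence intensity read-out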
T4 sequence (P24666 whole entry): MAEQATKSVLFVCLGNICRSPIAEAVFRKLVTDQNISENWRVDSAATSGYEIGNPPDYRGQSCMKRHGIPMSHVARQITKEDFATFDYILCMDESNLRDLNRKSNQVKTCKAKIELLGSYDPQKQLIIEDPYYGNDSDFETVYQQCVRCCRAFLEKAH

[21] = target: T5, Tyrosine-protein phosphatase non-receptor type 22 (Homo sapiens, UniProt Q9Y2R2); assay: PTPN22 enzyme inhibitors – biochemical, fluorescence, LYP catalytic domain, selectivity assay for LMPTP inhibitor project, dose response (AID 652006); type: functional; details: read-out: IC50_Mean
T5 sequence (Q9Y2R2 whole entry): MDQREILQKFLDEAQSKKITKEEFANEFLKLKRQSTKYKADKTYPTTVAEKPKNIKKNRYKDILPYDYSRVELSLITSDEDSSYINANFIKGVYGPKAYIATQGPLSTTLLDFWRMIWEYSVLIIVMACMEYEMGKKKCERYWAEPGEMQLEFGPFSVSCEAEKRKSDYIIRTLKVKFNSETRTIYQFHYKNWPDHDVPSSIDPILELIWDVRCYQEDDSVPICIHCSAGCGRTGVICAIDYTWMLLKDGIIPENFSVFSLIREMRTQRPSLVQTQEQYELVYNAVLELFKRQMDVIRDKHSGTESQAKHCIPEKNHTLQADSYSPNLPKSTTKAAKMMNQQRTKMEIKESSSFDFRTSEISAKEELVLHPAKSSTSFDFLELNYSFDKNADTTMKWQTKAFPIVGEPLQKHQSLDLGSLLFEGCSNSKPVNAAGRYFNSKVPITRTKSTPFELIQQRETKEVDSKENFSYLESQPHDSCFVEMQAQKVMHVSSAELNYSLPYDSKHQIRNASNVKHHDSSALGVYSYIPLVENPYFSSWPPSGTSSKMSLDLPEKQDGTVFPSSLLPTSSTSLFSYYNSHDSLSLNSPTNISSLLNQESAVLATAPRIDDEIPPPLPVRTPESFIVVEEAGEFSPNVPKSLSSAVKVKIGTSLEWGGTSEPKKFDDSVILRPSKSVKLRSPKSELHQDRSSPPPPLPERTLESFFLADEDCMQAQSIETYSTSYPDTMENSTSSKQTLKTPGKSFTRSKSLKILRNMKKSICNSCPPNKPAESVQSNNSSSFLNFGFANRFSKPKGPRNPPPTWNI

[22] = A Cell-Based Confirmatory Screen for Compounds that Inhibit VEEV, TC-83 (8).; type: functional
[23] = activation of miR-122 Renilla sensor silencing – cell-based, Huh7 psiCHECK-miR122, Renilla luciferase, cherry-picked, dose response (AID 651956); type: functional;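 note: huh7 hepatoma cells stably carrying a psiCHECK-2 miR-122 sensor plasmid; renilla luciferase signal reporting endogenous miR-122 activity after 48 h compound exposure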
[24] = mouse fibroblast viability loss – cell-based, cherry-pick samples, set 2, cytotoxicity control for T. cruzi growth inhibitor project, dose response (AID 651817); type: functional; details: NIH3T3
[25] = TNFa-induced NF-kB reporter signal decrease – HEK293 LMP1 reporter cells, dry powder, set 2, selectivity assay for EBV LMP1 NF-kB inhibitor project, dose response (AID 624369); type: functional

Paired box protein Pax-8, sequence (Q06710 whole entry): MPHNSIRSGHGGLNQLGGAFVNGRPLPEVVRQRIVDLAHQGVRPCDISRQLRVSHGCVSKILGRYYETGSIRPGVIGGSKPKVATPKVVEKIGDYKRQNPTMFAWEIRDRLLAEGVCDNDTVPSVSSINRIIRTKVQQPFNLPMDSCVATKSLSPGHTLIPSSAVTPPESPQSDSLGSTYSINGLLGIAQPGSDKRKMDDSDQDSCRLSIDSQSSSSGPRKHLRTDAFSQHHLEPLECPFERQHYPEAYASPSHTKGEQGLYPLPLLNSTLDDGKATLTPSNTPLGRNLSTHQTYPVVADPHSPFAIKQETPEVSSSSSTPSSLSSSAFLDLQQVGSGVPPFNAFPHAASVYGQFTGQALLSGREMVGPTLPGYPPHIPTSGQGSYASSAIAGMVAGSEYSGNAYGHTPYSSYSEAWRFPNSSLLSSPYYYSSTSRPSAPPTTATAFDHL
5-hydroxytryptamine receptor 2A, sequence (P35363 whole entry): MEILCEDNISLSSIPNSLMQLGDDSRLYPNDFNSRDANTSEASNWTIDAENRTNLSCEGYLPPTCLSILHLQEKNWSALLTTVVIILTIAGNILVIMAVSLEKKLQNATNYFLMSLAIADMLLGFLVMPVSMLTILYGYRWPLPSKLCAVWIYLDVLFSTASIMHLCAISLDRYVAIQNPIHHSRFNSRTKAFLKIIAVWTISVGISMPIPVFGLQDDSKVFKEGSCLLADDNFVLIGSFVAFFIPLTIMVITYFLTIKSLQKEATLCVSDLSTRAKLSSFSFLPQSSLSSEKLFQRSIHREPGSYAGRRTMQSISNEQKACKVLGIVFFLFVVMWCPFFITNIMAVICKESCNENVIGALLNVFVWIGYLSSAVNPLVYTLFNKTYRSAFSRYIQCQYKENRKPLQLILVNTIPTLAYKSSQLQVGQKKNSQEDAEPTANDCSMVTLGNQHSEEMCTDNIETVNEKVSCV
DNA dC->dU-editing enzyme APOBEC-3G, sequence (Q9HC16 whole entry, the tested form may be a part): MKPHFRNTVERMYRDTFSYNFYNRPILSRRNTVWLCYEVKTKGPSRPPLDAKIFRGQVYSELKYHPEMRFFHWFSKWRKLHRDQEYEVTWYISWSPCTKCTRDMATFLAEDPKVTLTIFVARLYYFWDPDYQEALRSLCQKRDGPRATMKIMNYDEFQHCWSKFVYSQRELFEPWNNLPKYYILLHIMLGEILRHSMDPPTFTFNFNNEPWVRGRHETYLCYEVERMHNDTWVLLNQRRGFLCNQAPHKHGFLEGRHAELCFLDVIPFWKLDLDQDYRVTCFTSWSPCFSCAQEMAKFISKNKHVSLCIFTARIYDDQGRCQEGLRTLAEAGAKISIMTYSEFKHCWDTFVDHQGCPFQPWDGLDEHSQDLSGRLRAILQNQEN
Large T antigen, sequence (P03070 whole entry): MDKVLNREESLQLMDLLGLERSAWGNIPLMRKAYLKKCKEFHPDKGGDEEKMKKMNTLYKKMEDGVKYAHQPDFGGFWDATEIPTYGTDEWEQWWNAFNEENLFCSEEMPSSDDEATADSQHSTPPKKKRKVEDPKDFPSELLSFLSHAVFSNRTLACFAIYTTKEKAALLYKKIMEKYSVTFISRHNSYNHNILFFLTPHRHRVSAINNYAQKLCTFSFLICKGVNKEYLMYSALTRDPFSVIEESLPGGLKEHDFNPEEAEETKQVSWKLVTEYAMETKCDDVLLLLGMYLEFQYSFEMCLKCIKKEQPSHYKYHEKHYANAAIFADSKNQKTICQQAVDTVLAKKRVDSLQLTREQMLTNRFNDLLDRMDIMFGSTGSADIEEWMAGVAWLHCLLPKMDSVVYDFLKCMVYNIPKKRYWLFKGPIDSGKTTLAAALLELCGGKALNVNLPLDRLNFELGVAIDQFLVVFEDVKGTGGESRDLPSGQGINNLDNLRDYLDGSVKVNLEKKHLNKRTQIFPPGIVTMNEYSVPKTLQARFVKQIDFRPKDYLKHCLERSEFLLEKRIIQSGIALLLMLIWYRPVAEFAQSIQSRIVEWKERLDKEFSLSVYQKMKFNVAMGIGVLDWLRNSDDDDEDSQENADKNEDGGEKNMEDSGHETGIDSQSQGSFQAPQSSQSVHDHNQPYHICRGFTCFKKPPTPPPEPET
Nuclear receptor subfamily 5 group A member 2, sequence (O00482 whole entry): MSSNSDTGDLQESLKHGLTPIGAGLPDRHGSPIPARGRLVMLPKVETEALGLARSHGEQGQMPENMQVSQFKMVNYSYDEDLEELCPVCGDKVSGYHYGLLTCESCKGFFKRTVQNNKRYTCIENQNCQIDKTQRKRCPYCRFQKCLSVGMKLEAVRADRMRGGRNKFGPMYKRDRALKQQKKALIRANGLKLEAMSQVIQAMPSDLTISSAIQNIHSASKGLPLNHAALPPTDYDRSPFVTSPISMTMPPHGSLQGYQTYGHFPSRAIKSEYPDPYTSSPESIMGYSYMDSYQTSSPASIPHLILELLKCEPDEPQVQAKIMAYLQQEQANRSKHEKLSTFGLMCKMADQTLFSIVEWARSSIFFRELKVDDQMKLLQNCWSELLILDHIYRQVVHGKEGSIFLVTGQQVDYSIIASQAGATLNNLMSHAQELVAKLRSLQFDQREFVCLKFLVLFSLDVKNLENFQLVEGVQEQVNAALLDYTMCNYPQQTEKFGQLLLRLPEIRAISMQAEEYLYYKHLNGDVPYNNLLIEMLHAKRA
Cytochrome P450 2D6, sequence (P10635 whole entry): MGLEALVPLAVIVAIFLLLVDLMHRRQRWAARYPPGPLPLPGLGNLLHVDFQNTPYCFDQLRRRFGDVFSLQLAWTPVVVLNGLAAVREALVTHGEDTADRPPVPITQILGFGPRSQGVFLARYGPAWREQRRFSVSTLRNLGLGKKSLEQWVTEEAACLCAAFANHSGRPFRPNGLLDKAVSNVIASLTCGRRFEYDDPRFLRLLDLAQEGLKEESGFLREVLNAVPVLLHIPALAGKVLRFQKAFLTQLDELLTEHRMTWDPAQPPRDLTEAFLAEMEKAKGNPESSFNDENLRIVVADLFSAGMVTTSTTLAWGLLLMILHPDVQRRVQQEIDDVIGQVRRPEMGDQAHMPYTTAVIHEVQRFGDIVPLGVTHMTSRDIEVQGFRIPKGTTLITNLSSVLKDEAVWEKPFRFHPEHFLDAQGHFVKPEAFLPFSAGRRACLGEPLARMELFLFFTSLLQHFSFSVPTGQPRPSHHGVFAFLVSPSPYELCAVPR
Steroidogenic factor 1, sequence (Q13285 whole entry): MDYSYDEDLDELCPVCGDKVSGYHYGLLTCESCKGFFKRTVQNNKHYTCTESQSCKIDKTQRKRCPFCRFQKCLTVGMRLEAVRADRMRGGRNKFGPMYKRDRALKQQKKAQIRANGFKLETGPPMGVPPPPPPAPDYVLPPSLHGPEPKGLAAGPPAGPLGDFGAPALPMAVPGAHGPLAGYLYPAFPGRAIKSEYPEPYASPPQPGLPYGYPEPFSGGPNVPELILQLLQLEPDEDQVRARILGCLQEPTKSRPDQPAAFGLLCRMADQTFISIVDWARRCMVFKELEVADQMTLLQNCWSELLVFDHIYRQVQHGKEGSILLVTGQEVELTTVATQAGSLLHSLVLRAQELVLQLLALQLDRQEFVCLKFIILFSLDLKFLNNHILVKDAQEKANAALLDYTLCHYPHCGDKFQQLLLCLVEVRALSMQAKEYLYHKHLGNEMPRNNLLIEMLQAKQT
DNA dC->dU-editing enzyme APOBEC-3A, sequence (P31941 whole entry): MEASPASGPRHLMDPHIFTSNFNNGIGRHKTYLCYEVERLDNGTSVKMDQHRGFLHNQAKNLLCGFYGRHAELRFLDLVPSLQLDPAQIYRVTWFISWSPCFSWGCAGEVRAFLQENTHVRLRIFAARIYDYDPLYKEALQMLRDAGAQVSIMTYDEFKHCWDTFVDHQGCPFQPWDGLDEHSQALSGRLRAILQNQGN
Mu-type opioid receptor, sequence (P35372 whole entry): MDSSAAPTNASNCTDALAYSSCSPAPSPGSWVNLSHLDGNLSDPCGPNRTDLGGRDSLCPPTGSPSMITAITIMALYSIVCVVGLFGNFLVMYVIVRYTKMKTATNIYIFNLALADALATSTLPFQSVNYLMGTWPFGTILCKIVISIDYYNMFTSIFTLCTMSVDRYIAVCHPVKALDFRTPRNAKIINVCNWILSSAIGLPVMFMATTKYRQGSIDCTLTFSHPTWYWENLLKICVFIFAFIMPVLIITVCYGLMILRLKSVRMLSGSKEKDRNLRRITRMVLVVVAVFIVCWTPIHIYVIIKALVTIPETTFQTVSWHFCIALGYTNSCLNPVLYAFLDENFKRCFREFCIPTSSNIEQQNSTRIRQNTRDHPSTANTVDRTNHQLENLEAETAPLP
Beta Lactamase, sequence (Q932Y6 whole entry): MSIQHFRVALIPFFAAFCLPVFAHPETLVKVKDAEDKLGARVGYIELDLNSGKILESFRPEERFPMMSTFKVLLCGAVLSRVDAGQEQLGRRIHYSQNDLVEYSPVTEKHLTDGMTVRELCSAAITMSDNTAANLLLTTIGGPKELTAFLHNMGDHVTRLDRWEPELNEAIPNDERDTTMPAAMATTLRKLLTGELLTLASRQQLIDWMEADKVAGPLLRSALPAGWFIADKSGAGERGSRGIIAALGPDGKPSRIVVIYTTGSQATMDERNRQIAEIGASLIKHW
Glucose-6-phosphate 1-dehydrogenase, sequence (P11413 whole entry): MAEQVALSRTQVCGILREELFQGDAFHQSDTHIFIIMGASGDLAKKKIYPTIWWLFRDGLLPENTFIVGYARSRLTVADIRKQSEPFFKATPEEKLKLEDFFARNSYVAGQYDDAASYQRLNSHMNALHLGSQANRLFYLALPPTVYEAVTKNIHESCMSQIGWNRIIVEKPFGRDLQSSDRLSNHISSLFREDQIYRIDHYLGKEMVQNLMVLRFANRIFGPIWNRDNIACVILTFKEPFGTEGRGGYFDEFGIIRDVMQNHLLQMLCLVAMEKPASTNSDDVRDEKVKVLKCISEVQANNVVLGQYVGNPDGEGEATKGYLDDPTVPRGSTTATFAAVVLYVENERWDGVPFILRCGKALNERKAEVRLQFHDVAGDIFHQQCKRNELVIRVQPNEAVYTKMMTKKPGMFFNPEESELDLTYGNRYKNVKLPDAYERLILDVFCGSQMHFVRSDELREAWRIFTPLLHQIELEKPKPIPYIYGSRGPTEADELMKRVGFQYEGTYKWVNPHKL

## O=C(CSCc1ccccc1Cl)NNC(=S)Nc1ccccc1
[1]
  IC50: > 122 µM (inactive)
Cytochrome P450 2D6
  AC50: 14.1 µM (inconclusive)
Cytochrome P450 1A2
  AC50: 15.8 µM (inconclusive)

## O=C(Nc1ccccc1)N1C[C@@H]2[C@H](c3ccccc31)[C@H](CO)N2Cc1cocn1
[2]
  AC50: 9.02 µM (active)

## Cc1cc(C)c2c(=O)n(CC(=O)Nc3ccc(Cl)cc3)sc2n1
[3]
  EC50: 1.39 µM (active)
[4]
  EC50: > 30 µM (not active)
[5]
  IC50: > 100 µM (inactive)
[6]
  IC50: 20.7 µM (inactive)
[7]
  IC50: 3.35 µM (active)
[8]
  IC50: 9.56 µM (active)
Beta Lactamase
  IC50: 23.6 µM (inactive)

## O=C(CSc1ccc2ccccc2c1)NCCc1ccc(O)c(O)c1
Mu-type opioid receptor
  EC50: 92.5 µM (inactive)
[9]
  EC50: 2.67 µM (active)

## COc1cc(/C=C2/C(=O)ON=C2c2ccccc2)ccc1O
Large T antigen
  IC50: 9.98 µM (active)
[10]
  IC50: 9.6 µM (active)
[11]
  CC50: 100 µM (active)
[12]
  IC50: 100 µM (active)

## c1ccc(-c2nc3ccccn3c2NC2CCCC2)nc1
[13]
  CC50: 28.8 µM (active)
[14]
  CC50: > 20 µM (active)
cells
  IC50: 4.27 µM (active)
[15]
  AC50: 87.6 µM (active)

## CC(=O)c1ccc(OC(C)C(=O)OCC(=O)NCCc2ccccc2)cc1 (stereo not drawn)
[16]
  IC50: 9.39 µM (active)
Steroidogenic factor 1
  IC50: 8.19 µM (active)
[17]
  IC50: 35.9 µM (inactive)

## CS(=O)(=O)Nc1ccc2c(c1)[C@@H]1C[C@H](CC(=O)NCc3ccc(Oc4ccccc4)cc3)O[C@@H](CO)[C@@H]1O2
Paired box protein Pax-8
  AC50: 6.4 µM (active)
[18]
  AC50: 39.7 µM (active)
[19]
  AC50: 20.7 µM (active)

## CC1C(=O)N(Cc2cn(Cc3ccco3)nn2)CCS(=O)(=O)N1Cc1ccc(-c2cccnc2)cc1 (stereo not drawn)
[20]
  IC50: 15.2 µM (active)
[21]
  IC50: 26.6 µM (inactive)

## CCN1CCN(Cc2nc3ccc(C#N)cc3c(=O)n2-c2ccccc2)CC1
[22]
  IC50: 1.14 µM (active)

## CCCNC(=O)C[C@H]1CC[C@@H]2[C@@H](COc3ccc(NC(=O)c4ccc(C(F)(F)F)cc4)cc3C(=O)N2C)O1
[23]
  AC50: 26.9 µM (active)

## C[C@H]1CN([C@@H](C)CO)C(=O)c2cccc(NC(=O)NC3CCCCC3)c2O[C@H]1CN(C)S(=O)(=O)c1ccc(F)cc1
[24]
  AC50: 28.7 µM (active)

## CCCNC(=O)c1cc2c(c(-c3cccc(-c4cccc(F)c4)c3)n1)[C@H](CCO)N([S@@+]([O-])C(C)(C)C)C2
[25]
  AbsAC35: 250.06 µM

Reference: ChEMBL document CHEMBL1201862, “PubChem BioAssay data set” (2004)
